Results taken from PMC10823399 (Journal of medicinal chemistry, 2015).
Values belong to the compound of their own block, whether it stands above or below them.

Assays:
D2R [1] = molecular target: T1, D2R (Homo sapiens, UniProt P14416); test: [35S]GTPγS binding assay, interaction with dopamine; assay type: biochemical; details: composite cooperativity with dopamine
D2LR [2] = molecular target: T2, D2LR (Homo sapiens, UniProt P14416); test: ERK1/2 phosphorylation assay, interaction with dopamine; assay type: cell-based; details: for Kb: operational model of allosterism (Equation 5); for activity at the D2R in words: effect on dopamine concentration-response, highest concentration 300 μM
D2LR [3] = molecular target: T2, D2LR; test: BRET cAMP assay; assay type: cell-based
D2R [4] = molecular target: T1, D2R; test: [3H]spiperone binding assay
Val91^2.61Ala D2R = Val91^2.61Ala D2R (Homo sapiens, UniProt P14416, V91A); test: ERK1/2 phosphorylation assay at mutant D2R; assay type: cell-based
Glu95^2.65Ala D2R = Glu95^2.65Ala D2R (Homo sapiens, UniProt P14416, E95A); test: ERK1/2 phosphorylation assay at mutant D2R; assay type: cell-based
D2R [5] = molecular target: T1, D2R; test: Interaction of bitopic ligand 36 with dopamine at the D2R
[6] = WT D2R, binding cooperativity with dopamine
[7] = Table 3, binding cooperativity with dopamine
[8] = Table 4, binding cooperativity with dopamine

T1 sequence (P14416 whole entry): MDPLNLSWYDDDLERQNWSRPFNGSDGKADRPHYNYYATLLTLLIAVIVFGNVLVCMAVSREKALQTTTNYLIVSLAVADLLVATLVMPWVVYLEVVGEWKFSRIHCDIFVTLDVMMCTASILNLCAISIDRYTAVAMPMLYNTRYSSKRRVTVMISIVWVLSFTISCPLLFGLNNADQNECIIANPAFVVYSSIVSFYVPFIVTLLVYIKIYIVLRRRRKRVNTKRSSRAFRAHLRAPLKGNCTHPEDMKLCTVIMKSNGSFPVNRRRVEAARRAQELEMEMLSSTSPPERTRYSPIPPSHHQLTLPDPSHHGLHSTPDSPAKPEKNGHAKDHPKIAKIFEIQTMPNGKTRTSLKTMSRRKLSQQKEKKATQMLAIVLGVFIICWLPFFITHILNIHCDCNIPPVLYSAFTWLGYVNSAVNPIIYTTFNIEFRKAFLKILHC
T2 sequence (P14416 whole entry): as above
Sequence of Glu95^2.65Ala D2R (P14416 whole entry E95A): as the sequence (P14416 whole entry) above, with E95A counted along it
Sequence of Val91^2.61Ala D2R (P14416 whole entry V91A): as the sequence (P14416 whole entry) above, with V91A counted along it

SMILES: CN(C)CC[C@H]1CC[C@H](NC(=O)c2cc3ccccc3[nH]2)CC1.Cl [Compound 9a, N-((trans)-4-(2-(Dimethylamino)ethyl)cyclohexyl)-1H-indole-2-carboxamide hydrochloride]
Logαβ (D2R [1]): −0.84 ± 0.15
αβ (D2R [1]; <1 negative): 0.14
Kb (D2LR [2]; KB, WT D2R): 3000 nM
Logα (D2LR [2]; [6]): −0.61 ± 0.14
α (D2LR [2]; [6]): 0.25
Logβ (D2LR [2]; WT D2R, modulation of dopamine efficacy, fixed to −100 in the fit): −100
Kb (D2LR [2]; pKB, WT D2R): 2880 nM

SMILES: CCCN(CCC)CC[C@H]1CC[C@H](NC(=O)c2cc3ccccc3[nH]2)CC1 [Compound 9b, N-((trans)-4-(2-(Dipropylamino)ethyl)cyclohexyl)-1H-indole-2-carboxamide]
mode of action in words (D2LR [3]): competitive partial agonist
mode of action in words (D2LR [2]; pERK1/2 assay): partial agonist
Ki (D2R [4]): 20000 nM

SMILES: NC(=O)c1cc2ccccc2[nH]1 [Compound 11a, 1H-Indole-2-carboxamide]
activity at the D2R in words (D2LR [2]): does not exhibit receptor binding

SMILES: CCNC(=O)c1cc2ccccc2[nH]1 [Compound 11b, N-Ethyl-1H-indole-2-carboxamide]
Logα (D2LR [2]; [7]): −0.35 ± 0.21

SMILES: CCCNC(=O)c1cc2ccccc2[nH]1 [Compound 11c, N-Propyl-1H-indole-2-carboxamide]
Logα (D2LR [2]; [7]): −0.60 ± 0.09

SMILES: CCCCNC(=O)c1cc2ccccc2[nH]1 [Compound 11d, N-Butyl-1H-indole-2-carboxamide]
increase in affinity compared to 3 (D2LR [2]): 7 fold
increase in negative cooperativity compared to 3 (D2LR [2]): 10 fold
Logα (D2LR [2]; [7]): −1.63 ± 0.11
Logα (D2LR [2]; Table 5, Wild Type): −1.63 ± 0.11
α (D2LR [2]; Table 5, Wild Type): 0.02
Logβ (D2LR [2]; Table 5, Wild Type, constrained): −100
decrease in affinity caused by mutation (Val91^2.61Ala D2R; Val91^2.61Ala vs WT): 14 fold
Logα (Glu95^2.65Ala D2R; Table 5, Glu95^2.65Ala): −1.24 ± 0.17
α (Glu95^2.65Ala D2R; Table 5, Glu95^2.65Ala): 0.05
Logβ (Glu95^2.65Ala D2R; Table 5, Glu95^2.65Ala, no modulation of dopamine efficacy): 0

SMILES: C=CCNC(=O)c1cc2ccccc2[nH]1 [Compound 11e, N-Allyl-1H-indole-2-carboxamide]
Logα (D2LR [2]; [7]): −0.26 ±0.06

SMILES: O=C(NCCO)c1cc2ccccc2[nH]1 [Compound 11f, N-(2-Hydroxyethyl)-1H-indole-2-carboxamide]
activity at the D2R in words (D2LR [2]): inactivity

SMILES: CC(C)(C)NC(=O)c1cc2ccccc2[nH]1 [Compound 11h, N-(tert-Butyl)-1H-indole-2-carboxamide]
Logα (D2LR [2]; [7]): −0.58 ± 0.13

SMILES: CC(C)N(C(=O)c1cc2ccccc2[nH]1)C(C)C [Compound 11j, N,N-Diisopropyl-1H-indole-2-carboxamide]
Logα (D2LR [2]; [7]): −1.39 ± 0.11

SMILES: O=C(NC1CCC1)c1cc2ccccc2[nH]1 [Compound 11p, N-Cyclobutyl-1H-indole-2-carboxamide]
Logα (D2LR [2]; [7]): −1.77 ± 0.27

SMILES: O=C(NC1CCCC1)c1cc2ccccc2[nH]1 [Compound 11q, N-Cyclopentyl-1H-indole-2-carboxamide]
Logα (D2LR [2]; [7]): −0.63 ± 0.11

SMILES: O=C(NC1CCCCC1)c1cc2ccccc2[nH]1 [Compound 11r, N-Cyclohexyl-1H-indole-2-carboxamide]
activity at the D2R in words (D2LR [2]): no determinable activity

SMILES: O=C(NN1CCCCC1)c1cc2ccccc2[nH]1 [Compound 11s, N-(Piperidin-1-yl)-1H-indole-2-carboxamide]
Logα (D2LR [2]; [7]): −0.53 ± 0.13

SMILES: CC(C)NC(=O)c1cc2ccccc2n1C [Compound 17, N-Isopropyl-1-methyl-1H-indole-2-carboxamide]
activity at the D2R in words (D2LR [2]): did not show activity

SMILES: CC(C)NC(=O)c1nc2ccccc2[nH]1 [Compound 19, N-Isopropyl-1H-benzo[d]imidazole-2-carboxamide]
Logα (D2LR [2]; [8]): −1.07 ± 0.22

SMILES: CC(C)NC(=O)c1nc2ccccc2o1 [Compound 21, N-Isopropylbenzo[d]oxazole-2-carboxamide]
activity at the D2R in words (D2LR [2]): did not show activity

SMILES: CC(C)NC(=O)c1cc2cccnc2[nH]1 [Compound 27, N-Isopropyl-1H-pyrrolo[2,3-b]pyridine-2-carboxamide]
activity at the D2R in words (D2LR [2]): lack of activity

SMILES: N#Cc1ccc2c(c1)CN(CCCCNC(=O)c1cc3ccccc3[nH]1)CC2 [Compound 36, N-(4-(7-Cyano-3,4-dihydroisoquinolin-2(1H)-yl)butyl)-1H-indole-2-carboxamide]
Kb (D2R [5]): 81.3 nM
increase in affinity as compared to 1 (D2R [5]): 10 fold
Logαβ (D2R [5]; Figure 7, negative cooperativity with dopamine): −1.32 ± 0.09

SMILES: NCCc1ccc(O)c(O)c1 [dopamine, reference compound]
LogτA (D2LR [2]; WT D2R expressing cell line): 0.74 ± 0.07
LogτA (Val91^2.61Ala D2R; V91A D2R expressing cell line): 0.65 ± 0.19
LogτA (Glu95^2.65Ala D2R; E95A D2R expressing cell line): 0.71 ± 0.24

Continued, values first:

Logα (D2LR [2]; [7]): −0.72 ± 0.35
α (D2LR [2]; [7]): 0.19
SMILES: CC(C)NC(=O)c1[nH]c2ccccc2c1F [Compound 13a, 3-Fluoro-N-isopropyl-1H-indole-2-carboxamide]

Logα (D2LR [2]; [7]): −1.14 ± 0.10
SMILES: CC(C)NC(=O)c1cc2c(F)cccc2[nH]1 [Compound 13b, 4-Fluoro-N-isopropyl-1H-indole-2-carboxamide]

Logα (D2LR [2]; [7]): −0.96 ± 0.12
SMILES: CC(C)NC(=O)c1cc2cccc(F)c2[nH]1 [Compound 13e, 7-Fluoro-N-isopropyl-1H-indole-2-carboxamide]

activity at the D2R in words (D2LR [2]): did not show activity
SMILES: CC(C)NC(=O)c1csc2ccccc12 [Compound 25b, N-Isopropylbenzo[b]thiophene-3-carboxamide]

activity at the D2R in words (D2LR [2]): devoid of detectable activity
SMILES: CC(C)NC(=O)c1cccc2[nH]ccc12 [Compound 30a, N-Isopropyl-1H-indole-4-carboxamide]

Logα (D2LR [2]; [8]): −1.27 ± 0.3
SMILES: CC(C)NC(=O)c1ccc2[nH]ccc2c1 [Compound 30b, N-Isopropyl-1H-indole-5-carboxamide]

Logα (D2LR [2]; [8]): −1.1 ± 0.3
SMILES: CC(C)NC(=O)c1ccc2cc[nH]c2c1 [Compound 30c, N-Isopropyl-1H-indole-6-carboxamide]

activity at the D2R in words (D2LR [2]): devoid of detectable activity
SMILES: CC(C)NC(=O)c1cccc2cc[nH]c12 [Compound 30d, N-Isopropyl-1H-indole-7-carboxamide]
